Assays:
Plasma stability = format: in vitro ADME; details: 37° C.; for Stability in Human Plasma Formation of parent compound: 2 μM, Yes/No; for half-life at 2 μM: pooled plasma, pH 7.4, human plasma, time points 0, 10, 30, 60 and 120 min
Procedure: The pooled frozen plasma was thawed in a water bath at 37° C. prior to experiment. Plasma was centrifuged at 4000 rpm for 5 min and the clots were removed if any. The pH will be adjusted to 7.4±0.1 if required.
Preparation of test compounds and positive control (propantheline bromide): 1 mM intermediate solution was prepared by diluting 10 μL of the stock solution with 90 μL MeOH; 1 mM intermediate of positive control Propantheline was prepared by diluting 10 μL of the stock solution with 90 μL ultrapure water. 100 μM dosing solution was prepared by diluting 20 μL of the intermediate solution (1 mM) with 180 μL MeOH. 98 μL of blank plasma was spiked with 2 μL of dosing solution (100 μM) to achieve 2 μM of the final concentration in duplicate and samples were incubated at 37° C. in a water bath. At each time point (0,10, 30, 60 and 120 min), 400 μL of stop solution (0.1% FA in MeOH containing 200 ng/mL tolbutamide and 200 ng/mL Labetalol) was added to precipitate protein and mixed thoroughly. Centrifuged sample plates at 4,000 rpm for 10 min. An aliquot of supernatant (100 μL) was transferred from each well to another plates.
Data analysis: The % remaining of test compound after incubation in plasma was calculated using following equation:
% Remaining=[…]×(PAR at appointed incubation time/PAR at T0 time)
where PAR is the peak area ratio of analyte versus internal standard (IS) (LC/MS/MS mobile phase condition: 0.1% Formic Acid in Water/0.1% Formic Acid in Acetonitrile. The appointed incubation time points are TO (0 min), Tn (n=0, 10, 30, 60, 120 min).

Liver S9 stability = format: in vitro ADME; details: human liver S9, 37° C.; for half-life at 1 μM: time points up to 60 min; for Stability in Human Liver S9 Formation of parent compound: Yes/No
Procedure: Intermediate solution: Dilute 5 μL of compounds or controls (7-ethoxycoumarin) from stock solution (10 mM) with 495 μL MeOH (Conc.: 100 μM, 1% DMSO, 99% MeOH). Stop solution: Cold ACN (including 100 ng/mL Tolbutamide and Labetalol as internal standard). Add 2 μL test compound or control working solution/well to all plates (T0, T5, T10, T20, T30, T60, NCF60) except matrix blank. Add 600 μL/well stop solution (cold in 4° C., including 100 ng/mL Tolbutamide/100 ng/mL Labetalol) to terminate the TO plate, then put it on ice. Dispense 840 μL/well S9 solution to 96-well plate as reservoir according to plate map. Then add 100 μL/well to every plate by Apricot. Incubate S9 solution and compound at 37° C. for about 10 min except NCF60 and TO. After adding S9 solution and 98 μ LPB buffer to NCF60, incubate at 37° C. without pre-warming, start timer 1. After 60 min, add 600 μL/well stop solution to terminate the reaction. After pre-warming, dispense 760 μL/well cofactor solution to 96-well plate as reservoir according to plate map. Then add 98 μL/well to every plate by Apricot to start reaction. Incubate at 37° C., start timer 2, Add 600 μL/well stop solution (cold in 4° C., including 100 ng/mL Tolbutamide and Labetalol) to terminate the reaction. Samples are centrifuged at 4000 rpm for 20 min. While centrifuging, load 8×new 96-well plate with 300 μL HPLC water, then transfer 100 μL supernatant, mix with water for LC/MS/MS, transferred to Bioanalytical Services for LC-MS/MS analysis. Use equation of first order kinetics to calculate t1/2 and CL: Equation of first order kinetics: […]

Row | SMILES | Stability in Human Plasma Formation of parent compound (Plasma stability) | half-life at 2 μM (Plasma stability) [min] | half-life at 1 μM (Liver S9 stability) [min] | Stability in Human Liver S9 Formation of parent compound (Liver S9 stability)
1 | CC(=O)[C@H]1CC[C@H]2[C@@H]3CC[C@H]4C[C@H](OC(=O)OCc5oc(=O)oc5C)CC[C@]4(C)[C@H]3CC[C@]12C [Example 20, [(3R,5S,8R,9S,10S,13S,14S,17S)-17-acetyl-10,13-dimethyl-2,3,4,5,6,7,8,9,11,12,14,15,16,17-tetradecahydro-1H-cyclopenta[a]phenanthren-3-yl](5-methyl-2-oxo-1,3-dioxol-4-yl)methyl carbonate] | Yes | < 50 | < 50 | Yes
2 | CC(=O)[C@H]1CC[C@H]2[C@@H]3CC[C@H]4C[C@H](OC(=O)N(C)CCOC(=O)C(C)C)CC[C@]4(C)[C@H]3CC[C@]12C [Example 23, 2-[[(3R,5S,8R,9S,10S,13S,14S,17S)-17-acetyl-10,13-dimethyl-2,3,4,5,6,7,8,9,11,12,14,15,16,17-tetradecahydro-1H-cyclopenta[a]phenanthren-3-yl]oxycarbonyl-methyl-amino]ethyl 2-methylpropanoate] | No | 50 to 200 | < 50 | Yes
3 | CC(=O)OCCCC(=O)O[C@@H]1CC[C@@]2(C)[C@@H](CC[C@@H]3[C@@H]2CC[C@]2(C)[C@@H](C(C)=O)CC[C@@H]32)C1 [Example 14, [(3R,5S,8R,9S,10S,13S,14S,17S)-17-acetyl-10,13-dimethyl-2,3,4,5,6,7,8,9,11,12,14,15,16,17-tetradecahydro-1H-cyclopenta[a]phenanthren-3-yl]4-acetoxybutanoate] | No | 50 to 200 | < 50 | No
4 | CCCCOC(=O)O[C@@H]1CC[C@@]2(C)[C@@H](CC[C@@H]3[C@@H]2CC[C@]2(C)[C@@H](C(C)=O)CC[C@@H]32)C1 [Example 21, [(3R,5S,8R,9S,10S,13S,14S,17S)-17-acetyl-10,13-dimethyl-2,3,4,5,6,7,8,9,11,12,14,15,16,17-tetradecahydro-1H-cyclopenta[a]phenanthren-3-yl]butyl carbonate] | No | > 200 | < 50 | Yes
5 | CC(=O)OCCCC(C)C(=O)O[C@@H]1CC[C@@]2(C)[C@@H](CC[C@@H]3[C@@H]2CC[C@]2(C)[C@@H](C(C)=O)CC[C@@H]32)C1 (stereo partly drawn) [Example 17, [(3R,5S,8R,9S,10S,13S,14S,17S)-17-acetyl-10,13-dimethyl-2,3,4,5,6,7,8,9,11,12,14,15,16,17-tetradecahydro-1H-cyclopenta[a]phenanthren-3-yl]5-acetoxy-2-methyl-pentanoate] | No | 50 to 200 | < 50 | No
6 | CC(=O)[C@H]1CC[C@H]2[C@@H]3CC[C@H]4C[C@H](OC(=O)CCCOC(=O)C(C)C)CC[C@]4(C)[C@H]3CC[C@]12C [Example 15, [(3R,5S,8R,9S,10S,13S,14S,17S)-17-acetyl-10,13-dimethyl-2,3,4,5,6,7,8,9,11,12,14,15,16,17-tetradecahydro-1H-cyclopenta[a]phenanthren-3-yl]4-(2-methylpropanoyloxy)butanoate] | No | 50 to 200 | < 50 | No
7 | CC(=O)[C@H]1CC[C@H]2[C@@H]3CC[C@H]4C[C@H](OC(=O)CC5CCCC5)CC[C@]4(C)[C@H]3CC[C@]12C [Example 8, [(3R,5S,8R,9S,10S,13S,14S,17S)-17-acetyl-10,13-dimethyl-2,3,4,5,6,7,8,9,11,12,14,15,16,17-tetradecahydro-1H-cyclopenta[a]phenanthren-3-yl] 3-cyclopentylacetate] | No | > 200 | < 50 | No
8 | COC(=O)N(C)CCOC(=O)O[C@@H]1CC[C@@]2(C)[C@@H](CC[C@@H]3[C@@H]2CC[C@]2(C)[C@@H](C(C)=O)CC[C@@H]32)C1 [Example 27, [(3R,5S,8R,9S,10S,13S,14S,17S)-17-acetyl-10,13-dimethyl-2,3,4,5,6,7,8,9,11,12,14,15,16,17-tetradecahydro-1H-cyclopenta[a]phenanthren-3-yl]2-(methoxycarbonyl-N-methylamino)ethyl carbonate] | No | > 200 | < 50 | Yes
9 | CC(=O)[C@H]1CC[C@H]2[C@@H]3CC[C@H]4C[C@H](OC(=O)OCCN(C)C(=O)C(C)C)CC[C@]4(C)[C@H]3CC[C@]12C [Example 25, (3R,5S,8R,9S,10S,13S,14S,17S)-17-acetyl-10,13-dimethylhexadecahydro-1H-cycl penta[a]phenanthren-3-yl(2-(N-methylisobutyramido)ethyl) carbonate] | No | > 200 | < 50 | No
